{"source": "patent US20250120975A1", "about": "“INTEGRIN INHIBITORS FOR TREATMENT OF PRIMARY SCLEROSING CHOLANGITIS” (Pliant Therapeutics, Inc., priority 2023, published 2025)", "tested_on": "PCLivS from human liver tissue with biliary fibrosis (PSC, PBC)", "experiment": "Fibrotic gene expression (NanoString) in precision cut liver slices", "format": "cell-based", "settings": "PCLivS from a single PSC liver, 2 days", "from_the_text": "A human liver tissue explant was obtained from a PSC patient undergoing liver transplantation.\nSlicing: To slice, 8-mm cores were punctured from the liver tissue and were stored in ice cold UW solution until slicing. A tissue core was glued onto the center of the plunger of the specimen syringe for slicing. The core was embedded in 2% low gelling temperature agarose made up in milliQ water. The thickness of the slice was adjusted to 400 μm and was sectioned into oxygenated KHB occurs. The slices were stored in cold UW solution on ice until all slices were cut.\nCulture: The compounds were diluted to 1000× concentration in 100% DMSO. The compounds were diluted in a medium with a final concentration of 0.1% DMSO before transferring the slices and making a fresh medium for each 24-H medium change. Before being used for slice culture, all media was equilibrated in the incubator at culture conditions for 30 minutes. After all slices have been cut, all slices were transferred to wells prefilled with oxygenated, warmed, and equilibrated WEGG. The slices were incubated for 1 hour in the incubator at a temperature of 37° C., 5% CO2, 80% 02, 100% humidity on shaking platform set at 55 rpm. After this one-hour recovery, the slices were transferred to wells prefilled with oxygenated, warmed, and equilibrated WEGG with appropriate treatments. The slices were distributed into the treatment groups to account for inter-core variability. The slices were cultured at 37° C., 80% 02, 5% CO2, 100% humidity on shaking platform set at 55 rpm. The medium was changed after 24 hours.\nThe slices were removed from the well and rinsed in PBS. Excess liquid was removed. The slices were transferred to a microtube pooling all three slices from the same treatment into one tube. The pooled slices were snap frozen in liquid nitrogen and placed on dry ice until all samples were collected and then transferred to −80° C. for storage. For media collection, 140 μL of medium was pooled from each well within a treatment group and transferred to a 96-well Axygen plate. After sealing the plate, spin down occurred at 4000×g for 10 minutes at 4° C. Then, 130 μL aliquots were transferred into 3 new plates. The plates were sealed and stored at −80° C.\n(S)-4-((2-methoxyethyl)(4-(5,6,7,8-tetrahydro-1,8-naphthyridin-2-yl)butyl)amino)-2-(quinazolin-4-ylamino)butanoic acid was tested at 100 nM, 1 μM, and 10 μM. OCA, an FXR agonist in clinical trials for PSC, was used at 250 nM and 2.5 μM reflecting Cmax levels observed in clinical trials. An ALK5 inhibitor (R268712) was used at 1 μM (400 times its IC50 per manufacturer) to target max inhibition of the ALK5 receptor.\nMethods: Lysis buffer was made with one third RLT buffer in RNAse-free water and 2 mg/mL proteinase K. About 100-200 μL lysis buffer was added to each pool of 3 liver slices. Samples were incubated at 55° C. in the bead bath for 2 hours and 45 minutes, vortexing every 30 minute. Samples were centrifuged and the supernatant aliquoted in 15 μL aliquots into 96-well Axygen plates.\nMethods: nCounter PlexSet was run according to standard protocol. Briefly, probe A and probe B were diluted with TE-tween to Working Probe Pools and mixed with hybridization buffer. This master mix was added to the A-H PlexSets and mixed. Each PlexSet was added across a row to a 96 well qPCR plate and proteinase K was added to a final concentration of 2 mg/mL. Lysate from samples was added to appropriate wells and mixed. The plate was sealed, spun, and placed in thermocycler at 67° C. for 16 hours. Hybridized samples were pooled down columns and 35 μL were loaded on a Sprint Cartridge and run on the nCounter Sprint. Data analysis was performed in nSolver using background thresholding based on negative controls, positive control normalization, reference sample normalization and normalization to housekeeping genes (GUSB, HPRT1, POLR1B, RPLP0, SRFS4, and/or UBC). […]"}
{"smiles": "Cc1cccc(-c2[nH]ncc2-c2ccc(F)c(-c3cnn(CCO)c3)c2)n1", "note": "[Alk5 Inh., reference compound]", "values": [{"measurement": "% Inhibition of expression COL1A1", "setting": "1 μM", "result": 79, "unit": "%"}, {"measurement": "% Inhibition of expression COL1A2", "setting": "1 μM", "result": 46, "unit": "%"}]}
{"smiles": "CC[C@H]1[C@@H](O)[C@@H]2[C@H](CC[C@]3(C)[C@@H]([C@H](C)CCC(=O)O)CC[C@@H]23)[C@@]2(C)CC[C@@H](O)C[C@@H]12", "note": "[OCA, obeticholic acid, reference compound]", "values": [{"measurement": "% Inhibition of expression COL1A1", "setting": "250 nM", "result": 44, "unit": "%"}, {"measurement": "% Inhibition of expression COL1A2", "setting": "250 nM", "result": 19, "unit": "%"}, {"measurement": "% Inhibition of expression COL1A1", "setting": "2.5 μM", "result": 35, "unit": "%"}, {"measurement": "% Inhibition of expression COL1A2", "setting": "2.5 μM", "result": 15, "unit": "%"}]}
